Consider 26 compounds from patent US10023564B2, “G protein-coupled receptor kinase 2 inhibitors and methods for use of the same” (THE REGENTS OF THE UNIVERSITY OF MICHIGAN, priority 2014, dated 2018).

The structures appear in SMILES notation.

Sequence of GRK2 (P25098 whole entry, species assumed): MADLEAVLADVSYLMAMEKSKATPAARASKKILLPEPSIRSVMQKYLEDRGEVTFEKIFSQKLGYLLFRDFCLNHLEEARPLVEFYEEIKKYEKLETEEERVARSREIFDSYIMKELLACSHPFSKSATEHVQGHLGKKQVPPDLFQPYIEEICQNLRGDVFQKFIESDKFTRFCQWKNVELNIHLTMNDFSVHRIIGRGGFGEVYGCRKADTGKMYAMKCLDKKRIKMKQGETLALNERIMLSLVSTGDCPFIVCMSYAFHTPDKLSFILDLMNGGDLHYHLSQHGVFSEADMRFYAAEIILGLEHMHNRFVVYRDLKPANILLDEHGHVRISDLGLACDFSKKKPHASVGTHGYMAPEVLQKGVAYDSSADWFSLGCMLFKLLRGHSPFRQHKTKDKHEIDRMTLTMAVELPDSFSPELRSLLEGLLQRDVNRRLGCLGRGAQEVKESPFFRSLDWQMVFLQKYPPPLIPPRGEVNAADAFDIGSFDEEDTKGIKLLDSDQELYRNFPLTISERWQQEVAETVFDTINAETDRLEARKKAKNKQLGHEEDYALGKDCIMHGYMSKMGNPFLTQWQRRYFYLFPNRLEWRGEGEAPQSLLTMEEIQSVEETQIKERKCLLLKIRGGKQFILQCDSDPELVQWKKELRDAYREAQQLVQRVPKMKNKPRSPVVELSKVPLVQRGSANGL
Sequence of ROCK1 (Q13464 whole entry, species assumed): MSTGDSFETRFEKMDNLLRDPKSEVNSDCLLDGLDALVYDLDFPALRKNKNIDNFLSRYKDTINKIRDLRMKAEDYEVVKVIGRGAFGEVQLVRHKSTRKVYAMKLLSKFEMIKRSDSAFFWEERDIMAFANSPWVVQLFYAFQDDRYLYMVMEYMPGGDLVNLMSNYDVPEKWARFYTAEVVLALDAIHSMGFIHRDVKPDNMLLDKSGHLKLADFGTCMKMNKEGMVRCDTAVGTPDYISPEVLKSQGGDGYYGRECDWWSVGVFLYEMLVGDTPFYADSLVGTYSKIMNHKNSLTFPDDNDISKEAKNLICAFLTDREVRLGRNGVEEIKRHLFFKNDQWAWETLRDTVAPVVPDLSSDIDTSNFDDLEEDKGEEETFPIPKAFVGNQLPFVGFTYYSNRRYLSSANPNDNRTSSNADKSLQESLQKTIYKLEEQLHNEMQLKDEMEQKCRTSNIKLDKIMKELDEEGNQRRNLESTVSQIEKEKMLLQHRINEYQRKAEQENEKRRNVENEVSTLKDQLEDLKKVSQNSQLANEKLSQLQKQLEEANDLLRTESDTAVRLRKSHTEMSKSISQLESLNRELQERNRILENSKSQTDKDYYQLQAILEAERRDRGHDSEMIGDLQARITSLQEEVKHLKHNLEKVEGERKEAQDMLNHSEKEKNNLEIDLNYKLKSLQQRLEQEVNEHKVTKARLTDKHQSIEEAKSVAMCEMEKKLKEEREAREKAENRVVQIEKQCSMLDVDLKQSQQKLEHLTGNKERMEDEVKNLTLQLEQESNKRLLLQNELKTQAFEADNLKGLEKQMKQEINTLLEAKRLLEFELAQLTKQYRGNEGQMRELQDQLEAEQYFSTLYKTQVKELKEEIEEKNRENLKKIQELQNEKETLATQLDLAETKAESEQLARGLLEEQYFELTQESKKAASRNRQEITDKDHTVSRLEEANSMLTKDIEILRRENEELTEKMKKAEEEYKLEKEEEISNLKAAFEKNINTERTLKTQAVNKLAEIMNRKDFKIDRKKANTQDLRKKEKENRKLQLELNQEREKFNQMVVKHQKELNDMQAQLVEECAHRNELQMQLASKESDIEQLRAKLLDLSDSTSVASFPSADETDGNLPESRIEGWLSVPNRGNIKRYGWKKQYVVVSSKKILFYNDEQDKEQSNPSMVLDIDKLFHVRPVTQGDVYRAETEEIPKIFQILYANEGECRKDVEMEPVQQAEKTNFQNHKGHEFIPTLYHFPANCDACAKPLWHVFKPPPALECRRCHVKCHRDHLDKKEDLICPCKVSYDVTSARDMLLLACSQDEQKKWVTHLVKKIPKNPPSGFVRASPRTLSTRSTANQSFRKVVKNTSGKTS

The first assay deals with GRK2 (Homo sapiens (Human), UniProt P25098). Kind of assay: GRK2 kinetic assay (phosphorylation of bROS or tubulin, phosphorimaging). The format is biochemical. The following applies: 50 nM GRK, 5 μM ATP, 5 min reaction. The method, then:
The low salt concentration and DDM were used to maximize GRK activity and disrupt small molecule aggregates from forming, respectively. […] Data was analyzed and inhibition curves were fit via GraphPad Prism.
With `CCC(C)N(C)C(=O)c1cc(C2NC(=O)NC(C)=C2C(=O)Nc2ccc3[nH]ncc3c2)ccc1F` (centres unmarked) [Example E19, 4-(3-(sec-butyl(methyl)carbamoyl)-4-fluorophenyl)-N-(1H-indazol-5-yl)-6-methyl-2-oxo-1,2,3,4-tetrahydropyrimidine-5-carboxamide], the IC50 (as a rule, the point on the concentration scale where inhibition reaches its midpoint) amounted to 51 µM.
In turn, `COCc1noc(CNC(=O)c2cc(C3NC(=O)NC(C)=C3C(=O)Nc3ccc4[nH]ncc4c3)ccc2F)n1` (centres unmarked) [Example E24, 4-(4-fluoro-3-(((3-(methoxymethyl)-1,2,4-oxadiazol-5-yl)methyl)carbamoyl)phenyl)-N-(1H-indazol-5-yl)-6-methyl-2-oxo-1,2,3,4-tetrahydropyrimidine-5-carboxamide] registered an IC50 of 0.24 µM.
The same measure, in the same setting: then `CC1=C(C(=O)Nc2ccc3[nH]ncc3c2)C(c2ccc(F)c(C(=O)NC3CC4CCC3(C)C4(C)C)c2)NC(=O)N1` (centres unmarked) [Example E25, 4-(4-fluoro-3-((1,7,7-trimethylbicyclo[2.2.1]heptan-2-yl)carbamoyl)phenyl)-N-(1H-indazol-5-yl)-6-methyl-2-oxo-1,2,3,4-tetrahydropyrimidine-5-carboxamide], with 5.2 µM; and `CC1=C(C(=O)Nc2ccc3[nH]ncc3c2)C(c2ccc(F)c(CC(=O)N3CCOC(CCO)C3)c2)NC(=O)N1` (centres unmarked) [Example E31, 4-(4-fluoro-3-(2-(2-(2-hydroxyethyl)morpholino)-2-oxoethyl)phenyl)-N-(1H-indazol-5-yl)-6-methyl-2-oxo-1,2,3,4-tetrahydropyrimidine-5-carboxamide], with 1.5 µM.
On the same count and under the same terms, the value for `CC1=C(C(=O)Nc2ccc3[nH]ncc3c2)C(c2ccc(F)c(C(=O)N(C)Cc3cc(C)[nH]n3)c2)NC(=O)N1` (centres unmarked) [Example E26, 4-(4-fluoro-3-(methyl((5-methyl-1H-pyrazol-3-yl)methyl)carbamoyl)phenyl)-N-(1H-indazol-5-yl)-6-methyl-2-oxo-1,2,3,4-tetrahydropyrimidine-5-carboxamide] was 1.2 µM; that for `CC1=C(C(=O)Nc2ccc3[nH]ncc3c2)C(c2ccc(F)c(CC(=O)N(C)Cc3nc(C)c[nH]3)c2)NC(=O)N1` (centres unmarked) [Example E34, 4-(4-fluoro-3-(2-(methyl((4-methyl-1H-imidazol-2-yl)methyl)amino)-2-oxoethyl)phenyl)-N-(1H-indazol-5-yl)-6-methyl-2-oxo-1,2,3,4-tetrahydropyrimidine-5-carboxamide] was 1.2 µM.
Still for that read-out and setting: the value for `CC1=C(C(=O)Nc2ccc3[nH]ncc3c2)C(c2ccc(F)c(CCC(=O)NCc3ncc(C)o3)c2)NC(=O)N1` (centres unmarked) [Example E37, 4-(4-fluoro-3-(3-(((5-methyloxazol-2-yl)methyl)amino)-3-oxopropyl)phenyl)-N-(1H-indazol-5-yl)-6-methyl-2-oxo-1,2,3,4-tetrahydropyrimidine-5-carboxamide] was 4 µM.

Another assay concerns the target ROCK1 (Homo sapiens (Human), UniProt Q13464). Kind of assay: Rho-associated coiled-coil kinase (ROCK) assay, ADP-Glo system. It counts as biochemical. The following applies: 0.1 μg ROCK1, 1 μg S6K substrate, 100 μM ATP, 60 min. The procedure:
Rho-associated coiled-coil kinase (ROCK) assays were performed with the ADP-Glo system using 0.1 μg ROCK1 and 1 μg S6K substrate, and 100 μM ATP for 60 min prior to addition of ADP-GLO Reagent, and allowed to incubate for an additional 40 min prior to the addition of the Kinase Detection Reagent and imaging on a PHERASTAR system.
On the technique in general: In ADP-Glo the light output rises with the ADP produced.
For the compound `CC1=C(C(=O)Nc2ccc3[nH]ncc3c2)C(c2ccc(F)cc2)NC(=O)N1` (centres unmarked) [GSK180736A, reference compound], the concentration for half-maximal inhibition (IC50) was 0.078 µM.
On the same count and under the same terms, then `COc1cccc(OC)c1CNC(=O)Cc1cc(C2NC(=O)NC(C)=C2C(=O)Nc2ccc3[nH]ncc3c2)ccc1F` (centres unmarked) [Example E30, 4-(3-(2-((2,6-dimethoxybenzyl)amino)-2-oxoethyl)-4-fluorophenyl)-N-(1H-indazol-5-yl)-6-methyl-2-oxo-1,2,3,4-tetrahydropyrimidine-5-carboxamide], with 0.2 µM; and `CC1=C(C(=O)Nc2ccc3[nH]ncc3c2)C(c2ccc(F)c(C(=O)NCc3c(Cl)cccc3Cl)c2)NC(=O)N1` (centres unmarked) [Example E09, 4-(3-((2,6-dichlorobenzyl)carbamoyl)-4-fluorophenyl)-N-(1H-indazol-5-yl)-6-methyl-2-oxo-1,2,3,4-tetrahydropyrimidine-5-carboxamide], with 6.7 µM.
On the same count and under the same terms, the value for `CC1=C(C(=O)Nc2ccc3[nH]ncc3c2)C(c2ccc(F)c(C(=O)NCc3ncccc3C)c2)NC(=O)N1` (centres unmarked) [Example E15, 4-(4-fluoro-3-(((3-methylpyridin-2-yl)methyl)carbamoyl)phenyl)-N-(1H-indazol-5-yl)-6-methyl-2-oxo-1,2,3,4-tetrahydropyrimidine-5-carboxamide] was 0.15 µM; that for `CNC(=O)c1cc(C2NC(=O)NC(C)=C2C(=O)Nc2ccc3[nH]ncc3c2)ccc1F` (centres unmarked) [Example E12, 4-(4-fluoro-3-(methylcarbamoyl)phenyl)-N-(1H-indazol-5-yl)-6-methyl-2-oxo-1,2,3,4-tetrahydropyrimidine-5-carboxamide] was 0.19 µM.
`COc1cccc(OC)c1CNC(=O)c1cc(C2NC(=O)NC(C)=C2C(=O)Nc2ccc3[nH]ncc3c2)ccc1F` (centres unmarked) [Example E11, 4-(3-((2,6-dimethoxybenzyl)carbamoyl)-4-fluorophenyl)-N-(1H-indazol-5-yl)-6-methyl-2-oxo-1,2,3,4-tetrahydropyrimidine-5-carboxamide]: the IC50 was > 10 µM.
The same measure, in the same setting: then `CC1=C(C(=O)Nc2ccc3[nH]ncc3c2)C(c2ccc(F)c(C(=O)NCc3c(C)cccc3C)c2)NC(=O)N1` (centres unmarked) [Example E10, 4-(3-((2,6-dimethylbenzyl)carbamoyl)-4-fluorophenyl)-N-(1H-indazol-5-yl)-6-methyl-2-oxo-1,2,3,4-tetrahydropyrimidine-5 carboxamide], with 5.8 µM; and `CC1=C(C(=O)Nc2ccc3[nH]ncc3c2)C(c2ccc(F)c(C(=O)NCc3ccccc3)c2)NC(=O)N1` (centres unmarked) [Example E16, 4-(3-(benzylcarbamoyl)-4-fluorophenyl)-N-(1H-indazol-5-yl)-6-methyl-2-oxo-1,2,3,4-tetrahydropyrimidine-5-carboxamide], with 0.069 µM; and `CC1=C(C(=O)Nc2ccc3[nH]ncc3c2)C(c2ccc(F)c(C(=O)NCc3c(C(F)(F)F)cccc3C(F)(F)F)c2)NC(=O)N1` (centres unmarked) [Example E17, 4-(3-((2,6-bis(trifluoromethyl)benzyl)carbamoyl)-4-fluorophenyl)-N-(1H-indazol-5-yl)-6-methyl-2-oxo-1,2,3,4-tetrahydropyrimidine-5-carboxamide], with > 10 µM.
On the same count and under the same terms, then `CC1=C(C(=O)Nc2ccc3[nH]ncc3c2)C(c2ccc(F)c(C(=O)NCCc3c(C)cccc3C)c2)NC(=O)N1` (centres unmarked) [Example E14, 4-(3-((2,6-dimethylphenethyl)carbamoyl)-4-fluorophenyl)-N-(1H-indazol-5-yl)-6-methyl-2-oxo-1,2,3,4-tetrahydropyrimidine-5-carboxamide], with 0.29 µM; and `CC1=C(C(=O)Nc2ccc3[nH]ncc3c2)C(c2ccc(F)c(CC(=O)NCc3c(C(F)(F)F)cccc3C(F)(F)F)c2)NC(=O)N1` (centres unmarked) [Example E29, 4-(3-(2-((2,6-bis(trifluoromethyl)benzyl)amino)-2-oxoethyl)-4-fluorophenyl)-N-(1H-indazol-5-yl)-6-methyl-2-oxo-1,2,3,4-tetrahydropyrimidine-5-carboxamide], with 0.4 µM; and `CC1=C(C(=O)Nc2ccc3[nH]ncc3c2)C(c2ccc(F)c(CC(=O)NCc3c(C)cccc3C)c2)NC(=O)N1` (centres unmarked) [Example E28, 4-(3-(2-((2,6-dimethylbenzyl)amino)-2-oxoethyl)-4-fluorophenyl)-N-(1H-indazol-5-yl)-6-methyl-2-oxo-1,2,3,4-tetrahydropyrimidine-5-carboxamide], with 0.45 µM.
Still for that read-out and setting: the value for `COc1cccc(CNC(=O)c2cc(C3NC(=O)NC(C)=C3C(=O)Nc3ccc4[nH]ncc4c3)ccc2F)c1` (centres unmarked) [Example E18, 4-(4-fluoro-3-((3-methoxybenzyl)carbamoyl)phenyl)-N-(1H-indazol-5-yl)-6-methyl-2-oxo-1,2,3,4-tetrahydropyrimidine-5-carboxamide] was 0.097 µM; that for `CC1=C(C(=O)Nc2ccc3[nH]ncc3c2)C(c2ccc(F)c(C(=O)NCc3cccc(F)c3)c2)NC(=O)N1` (centres unmarked) [Example E04, 4-(4-fluoro-3-((3-fluorobenzyl)carbamoyl)phenyl)-N-(1H-indazol-5-yl)-6-methyl-2-oxo-1,2,3,4-tetrahydropyrimidine-5-carboxamide] was 0.021 µM; that for `CC1=C(C(=O)Nc2ccc3[nH]ncc3c2)C(c2ccc(F)c(C(=O)NCc3ccccn3)c2)NC(=O)N1` (centres unmarked) [Example E01, 4-(4-fluoro-3-((pyridin-2-ylmethyl)carbamoyl)phenyl)-N-(1H-indazol-5-yl)-6-methyl-2-oxo-1,2,3,4-tetrahydropyrimidine-5-carboxamide] was 0.011 µM.
As to `COc1ccc(CNC(=O)c2cc(C3NC(=O)NC(C)=C3C(=O)Nc3ccc4[nH]ncc4c3)ccc2F)cc1` (centres unmarked) [Example E06, 4-(4-fluoro-3-((4-methoxybenzyl)carbamoyl)phenyl)-N-(1H-indazol-5-yl)-6-methyl-2-oxo-1,2,3,4-tetrahydropyrimidine-5-carboxamide], the IC50 came to 0.05 µM.
On the same count and under the same terms, the value for `CC1=C(C(=O)Nc2ccc3[nH]ncc3c2)C(c2ccc(F)c(C(=O)NCCc3ccncc3)c2)NC(=O)N1` (centres unmarked) [Example E07, 4-(4-fluoro-3-((2-(pyridin-4-yl)ethyl)carbamoyl)phenyl)-N-(1H-indazol-5-yl)-6-methyl-2-oxo-1,2,3,4-tetrahydropyrimidine-5-carboxamide] was > 100 µM; that for `CC1=C(C(=O)Nc2ccc3[nH]ncc3c2)C(c2ccc(F)c(C(=O)NCCc3ccccn3)c2)NC(=O)N1` (centres unmarked) [Example E03, 4-(4-fluoro-3-((2-(pyridin-2-yl)ethyl)carbamoyl)phenyl)-N-(1H-indazol-5-yl)-6-methyl-2-oxo-1,2,3,4-tetrahydropyrimidine-5-carboxamide] was 0.023 µM.
Still for that read-out and setting: the value for `CC1=C(C(=O)Nc2ccc3[nH]ncc3c2)C(c2ccc(F)c(C(=O)NCc3cc(C(F)(F)F)cc(C(F)(F)F)c3)c2)NC(=O)N1` (centres unmarked) [Example E13, 4-(3-((3,5-bis(trifluoromethyl)benzyl)carbamoyl)-4-fluorophenyl)-N-(1H-indazol-5-yl)-6-methyl-2-oxo-1,2,3,4-tetrahydropyrimidine-5-carboxamide] was 1.9 µM.
